Patent US20240374535A1, “COMPOSITIONS AND METHODS FOR TREATING BIOFILM DISORDERS AND INFECTIONS” (AHV International B.V., priority 2021, published 2024)

Tests used:
[1] = test system: Staphylococcus epidermis ATCC 35984; test: MIC assay (planktonic growth inhibition, OD600); type: cell-based, S. epidermidis; conditions: 24 h at 37° C.
In short: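 Broth microdilution in MHB-II, two-fold series from 8 mM stock solution (Tween 80/DMSO co-diluted, 2.5% in top well). Inoculum from overnight TSA colonies adjusted to OD600 0.0008 (~10^6 CFU/mL); 24 h at 37° C., growth read as OD600; three independent experiments.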

[2] = test system: Pseudomonas aeruginosa ATCC 27853 biofilm; test: MBEC assay (biofilm eradication, CFU log reduction); type: cell-based, P. aeruginosa; conditions: 48 h grown biofilm, 20 h treatment, CFU log reduction vs untreated
In short: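 Biofilms were grown 48 h static at 37 °C in TSB from inocula at OD600 0.2, then treated 20 h at 37 °C with 1, 0.5, 0.25 or 0.125 mM compound in saline (Tween 80 and DMSO each 0.63–0.08%), four replicates per condition. Resuspended biofilm was serially diluted and plated on TSA for 24 h; log CFU reduction versus untreated, with ≥1 counted as significant, in two independent experiments.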

[3] = test system: Pseudomonas aeruginosa ATCC 27853 biofilm; test: MBIC assay (biofilm inhibition, crystal violet); type: cell-based, P. aeruginosa; conditions: 48 h incubation, absorbance 540 nm
Protocol: The exact weighed amount was noted and the volume of solvent to reach a 80 mM dilution calculated. Half of the volume was added first, by adding Tween 80. In a second step, the other half of the volume DMSO was added and the closed tube inverted 5-10 times and then vortexed very thoroughly for at least 30 seconds. If after this procedure unsolved material was still visible, the tube was placed in a shaker at 37° C. at 150 rpm for at least 30 minutes. […] For the MBEC assay (method 1.3) the solution needs to be diluted to a final concentration of 2 mM in 0.9% saline solution and then further diluted to 1 mM, 0.5 mM, 0.25 mM and 0.125 mM in saline. Those dilutions were added as treatment to the 96 well plates with the grown biofilm (see method 3).
Frozen aliquots of Staphylococcus epidermis ATCC 35984 and Pseudomonas aeruginosa ATCC 27853 were used to inoculate a tryptic soy agar (TSA) plate and were incubated overnight at 37° C. After incubation 3-5 well-isolated colonies with the same morphology were selected from the TSA plate and resuspended in 2 mL 0.9% saline solution with 3-6 glass beads and vortexed. The optical density of the bacterial suspension was measured at 600 nm (OD600) with a spectrophotometer (Evolution™ 201/220 UV-Visible Spectrophotometer, Thermo Fisher Scientific) and diluted to an OD600 of 0.2. The MBIC assay was performed in a 96-microtiter plate. 50 μL of TSB was added into columns 2-11, and 100 μL to column 12 for sterility control. 100 μL of the 8 mM test compound solution (method 1) was added to column 1. A two-fold dilution series of the solution in TSB was achieved by resuspending 50 μL of the 8 mM solution from column 1 in column 2. This step was repeated until column 10. The respective concentration of Tween 80 and DMSO in column 1 is at 2.5%, which is two-fold diluted throughout the plate. 50 μL of the bacterial suspension was added to column 1-11. The microtiter plates were sealed with adhesive polyethylene film for sealing microplates (Diversified Biotech) and incubated for 48 h at 37° C. After incubation the supernatant is carefully removed and the well with the biofilm washed for one time with 100 μL 0.9% saline solution. 100 μL 0.1 M HCl was added and incubated for 1 h at room temperature to fix the biofilm. After incubation the HCl was removed and 100 μL crystal violet (0.1% v/v in water) was added and incubated for 30 min at room temperature. The unbound crystal violet was removed and the wells washed one time with 100 μL demineralized water. 100 μL 30% acetic acid was added and incubated for 1 h at 37° C. and 150 rpm. The solution was resuspended and transferred to a flat-bottom 96-well plate and the absorbance measured at 540 nm with the spectrophotometer. This assay was repeated two times in two independent experiments.

CSS(C)(=O)=O [Di-methyl thiosulfonate, methyl methane thiosulfonate]
S. epidermidis MIC50 ([1]; minimal concentration reducing final OD600 by 50%): 250 µM
S. epidermidis MIC90 ([1]; minimal concentration reducing final OD600 by 90%): 250 µM
P. aeruginosa MBEC mM with log reduction ≥1 [2]: 2 mM
P. aeruginosa MBIC90 [3]: 4 mM

CCCS[S+]([O-])CCC (centres unmarked) [Di-n-propyl thiosulfinate, S-propyl propane-1-sulfinothioate]
IC50 ([1]; minimal concentration reducing final OD600 by 50%, read-out: S. epidermidis MIC50): 250 µM
IC90 ([1]; minimal concentration reducing final OD600 by 90%, read-out: S. epidermidis MIC90): 500 µM
minimal effective concentration ([2]; Pseudomonas aeruginosa, ATCC27853, read-out: P. aeruginosa MBEC mM with log reduction ≥1): 4 mM
P. aeruginosa MBIC90 [3]: 2 mM
